Laboratory results from patent US9399646B2 (Genentech, Inc., priority 2010, dated 2016).

Columns and labels:
ER-α in MCF-7 cells = molecular target: T1, ER-α in MCF-7 cells (Homo sapiens, UniProt P03372); test: Breast cancer cell ER-α in cell western assay (SP1); format: cell-based; parameters: endogenous in cells; host or cells: MCF-7; conditions: 4 or 24 hr post compound addition; for Emax: MCF7, SP1 antibody, read-out: ER-α In Cell Western Assay (SP1) Max Response; for DC50: SP1 antibody, read-out: ER-α In Cell Western Assay (SP1) IC50
T1 sequence (P03372 1-595): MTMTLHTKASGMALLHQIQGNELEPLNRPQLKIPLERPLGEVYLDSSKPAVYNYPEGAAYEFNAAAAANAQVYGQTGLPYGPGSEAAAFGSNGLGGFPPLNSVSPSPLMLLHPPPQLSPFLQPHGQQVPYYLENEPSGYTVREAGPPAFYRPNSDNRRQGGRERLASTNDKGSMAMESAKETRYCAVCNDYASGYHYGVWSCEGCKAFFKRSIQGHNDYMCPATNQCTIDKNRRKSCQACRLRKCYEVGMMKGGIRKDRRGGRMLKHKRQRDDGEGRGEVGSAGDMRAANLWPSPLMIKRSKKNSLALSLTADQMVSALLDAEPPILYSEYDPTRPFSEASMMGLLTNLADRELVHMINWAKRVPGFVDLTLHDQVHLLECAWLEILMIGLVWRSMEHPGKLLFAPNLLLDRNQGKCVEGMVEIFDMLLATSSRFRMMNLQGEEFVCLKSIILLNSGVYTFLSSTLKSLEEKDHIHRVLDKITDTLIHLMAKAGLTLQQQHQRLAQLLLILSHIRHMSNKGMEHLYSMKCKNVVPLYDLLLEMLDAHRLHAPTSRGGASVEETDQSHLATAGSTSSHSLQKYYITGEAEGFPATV
How it was run: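 Fixed cells were immunostained with SP1 anti-ER antibody; ER signal (800 nm) was normalized to DRAQ5 DNA signal (700 nm) and expressed as % of untreated cells.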

MCF-7 cells = test: Breast cancer cell viability assay (CellTiter-Glo, 5 days); format: cell-based; conditions: 5 days' compound exposure; for IC50: Homo sapiens, MCF7, 120 h
How it was run: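 Eleven-point semilog compound series, final 0.3-0.000003 μM, added to overnight-adhered MCF-7 cells (320/well; RPMI, 10% FBS, 20 mM HEPES) for 5 days. Viability read by CellTiter-Glo luminescence, background from medium without cells subtracted, expressed relative to untreated cells.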

SMILES | Emax (ER-α in MCF-7 cells) | DC50 (ER-α in MCF-7 cells) | IC50 (MCF-7 cells) | MCF7 Viability Assay Max Response (MCF-7 cells)
CC/C(=C(/c1ccc(/C=C/C(=O)O)cc1)c1ccc2[nH]ncc2c1)c1ccc(-c2cncnc2)cc1 [Compound 383, (E)-3-(4-((E)-1-(1H-Indazol-5-yl)-2-(4-(pyrimidin-5-yl)phenyl)but-1-en-1-yl)phenyl)acrylic acid] | ≥ 40% | > 100 nM | > 100 nM | ++ (++ = a single % value ≧ 40%)
CC/C(=C(/c1ccc(/C=C/C(=O)O)cc1)c1ccc2[nH]ncc2c1)c1ccc(-c2cnn(C)c2)cc1 [Compound 384, (E)-3-(4-((E)-1-(1H-Indazol-5-yl)-2-(4-(1-methyl-1H-pyrazol-4-yl)phenyl)but-1-en-1-yl)phenyl)acrylic acid] | ≥ 40% | > 100 nM | > 100 nM | ++ (++ = a single % value ≧ 40%)
CC/C(=C(/c1ccc(/C=C/C(=O)O)cc1)c1ccc2[nH]ncc2c1)c1ccc(-c2nccs2)cc1 [Compound 387, (E)-3-(4-((E)-1-(1H-Indazol-5-yl)-2-(4-(thiazol-2-yl)phenyl)but-1-en-1-yl)phenyl)acrylic acid] | ≥ 40% | ≤ 100 nM | > 100 nM | ++ (++ = a single % value ≧ 40%)
CC/C(=C(/c1ccc(/C=C/C(=O)O)cc1)c1ccc2[nH]ncc2c1)c1ccc(-c2cscn2)cc1 [Compound 388, (E)-3-(4-((E)-1-(1H-Indazol-5-yl)-2-(4-(thiazol-4-yl)phenyl)but-1-en-1-yl)phenyl)acrylic acid] | ≥ 40% | ≤ 100 nM | > 100 nM | ++ (++ = a single % value ≧ 40%)
CC/C(=C(/c1ccc(/C=C/C(=O)O)cc1)c1ccc2[nH]ncc2c1)c1ccc(-c2cnccn2)cc1 [Compound 389, (E)-3-(4-((E)-1-(1H-Indazol-5-yl)-2-(4-(pyrazin-2-yl)phenyl)but-1-en-1-yl)phenyl)acrylic acid] | ≥ 40% | ≤ 100 nM | > 100 nM | ++ (++ = a single % value ≧ 40%)
CC/C(=C(/c1ccc(/C=C/C(=O)O)cc1)c1ccc2[nH]ncc2c1)c1cccc(-c2ccccn2)c1 [Compound 390, (E)-3-(4-((E)-1-(1H-Indazol-5-yl)-2-(3-(pyridin-2-yl)phenyl)but-1-en-1-yl)phenyl)acrylic acid] | ≥ 40% | ≤ 100 nM | ≤ 100 nM | ++ (++ = a single % value ≧ 40%)
CC/C(=C(/c1ccc(/C=C/C(=O)O)cc1)c1ccc2[nH]ncc2c1)c1cccc(-c2nccs2)c1 [Compound 391, (E)-3-(4-((E)-1-(1H-Indazol-5-yl)-2-(3-(thiazol-2-yl)phenyl)but-1-en-1-yl)phenyl)acrylic acid] | ≥ 40% | ≤ 100 nM | ≤ 100 nM | ++ (++ = a single % value ≧ 40%)
CC/C(=C(/c1ccc(/C=C/C(=O)O)cc1)c1ccc2[nH]ncc2c1)c1cccc(-c2cscn2)c1 [Compound 392, (E)-3-(4-((E)-1-(1H-Indazol-5-yl)-2-(3-(thiazol-4-yl)phenyl)but-1-en-1-yl)phenyl)acrylic acid] | ≥ 40% | ≤ 100 nM | ≤ 100 nM | ++ (++ = a single % value ≧ 40%)
CC/C(=C(/c1ccc(/C=C/C(=O)O)cc1)c1ccc2[nH]ncc2c1)c1cccc(-c2cccnc2)c1 [Compound 393, (E)-3-(4-((E)-1-(1H-Indazol-5-yl)-2-(3-(pyridin-3-yl)phenyl)but-1-en-1-yl)phenyl)acrylic acid] | ≥ 40% | ≤ 100 nM | ≤ 100 nM | ++ (++ = a single % value ≧ 40%)
CC/C(=C(/c1ccc(/C=C/C(=O)O)cc1)c1ccc2[nH]ncc2c1)c1cccc(-c2ccncc2)c1 [Compound 394, (E)-3-(4-((E)-1-(1H-Indazol-5-yl)-2-(3-(pyridin-4-yl)phenyl)but-1-en-1-yl)phenyl)acrylic acid] | ≥ 40% | ≤ 100 nM | > 100 nM | ++ (++ = a single % value ≧ 40%)

More lines, main results first:

Emax (ER-α in MCF-7 cells) | DC50 (ER-α in MCF-7 cells) | IC50 (MCF-7 cells) | SMILES | MCF7 Viability Assay Max Response (MCF-7 cells)
≥ 40% | ≤ 100 nM | ≤ 100 nM | CC/C(=C(/c1ccc(/C=C/C(=O)O)cc1)c1ccc2[nH]ncc2c1F)c1cccc(Oc2ccc(S(C)(=O)=O)nc2)c1 [Compound 378, (E)-3-(4-((E)-1-(4-Fluoro-1H-indazol-5-yl)-2-(3-((6-(methylsulfonyl)pyridin-3-yl)oxy)phenyl)but-1-en-1-yl)phenyl)acrylic acid] | ++ (++ = a single % value ≧ 40%)
≥ 40% | ≤ 100 nM | ≤ 100 nM | CC/C(=C(/c1ccc(/C=C/C(=O)O)cc1)c1ccc2[nH]ncc2c1)c1cccc(Oc2ccc(S(C)(=O)=O)cn2)c1 [Compound 379, (E)-3-(4-((E)-1-(1H-Indazol-5-yl)-2-(3-((5-(methylsulfonyl)pyridin-2-yl)oxy)phenyl)but-1-en-1-yl)phenyl)acrylic acid] | ++ (++ = a single % value ≧ 40%)
≥ 40% | ≤ 100 nM | > 100 nM | CC/C(=C(/c1ccc(/C=C/C(=O)O)cc1)c1ccc2[nH]ncc2c1)c1cccc(Oc2ccc(S(C)(=O)=O)nc2)c1 [Compound 380, (E)-3-(4-((E)-1-(1H-Indazol-5-yl)-2-(3-((6-(methylsulfonyl)pyridin-3-yl)oxy)phenyl)but-1-en-1-yl)phenyl)acrylic acid] | ++ (++ = a single % value ≧ 40%)
≥ 40% | ≤ 100 nM | ≤ 100 nM | CC/C(=C(/c1ccc(/C=C/C(=O)O)cc1)c1ccc2[nH]ncc2c1)c1cccc(Oc2ccc(C(F)(F)F)cn2)c1 [Compound 381, (E)-3-(4-((E)-1-(1H-Indazol-5-yl)-2-(3-((5-(trifluoromethyl)pyridin-2-yl)oxy)phenyl)but-1-en-1-yl)phenyl)acrylic acid] | ++ (++ = a single % value ≧ 40%)
≥ 40% | ≤ 100 nM | ≤ 100 nM | CC/C(=C(/c1ccc(/C=C/C(=O)O)cc1)c1ccc2[nH]ncc2c1)c1cccc(Oc2ccc(C)nc2)c1 [Compound 382, (E)-3-(4-((E)-1-(1H-Indazol-5-yl)-2-(3-((6-methylpyridin-3-yl)oxy)phenyl)but-1-en-1-yl)phenyl)acrylic acid] | ++ (++ = a single % value ≧ 40%)
≥ 40% | ≤ 100 nM | > 100 nM | CC/C(=C(/c1ccc(/C=C/C(=O)O)cc1)c1ccc2[nH]ncc2c1)c1ccc(-c2ccccn2)cc1 [Compound 385, (E)-3-(4-((E)-1-(1H-Indazol-5-yl)-2-(4-(pyridin-2-yl)phenyl)but-1-en-1-yl)phenyl)acrylic acid] | ++ (++ = a single % value ≧ 40%)
≥ 40% | ≤ 100 nM | > 100 nM | CC/C(=C(/c1ccc(/C=C/C(=O)O)cc1)c1ccc2[nH]ncc2c1)c1ccc(-c2ccsc2)cc1 [Compound 386, (E)-3-(4-((E)-1-(1H-Indazol-5-yl)-2-(4-(thiophen-3-yl)phenyl)but-1-en-1-yl)phenyl)acrylic acid] | ++ (++ = a single % value ≧ 40%)
